SMILES strings stand for the structures. pIC50: −log10 of the molar value. Read-outs that look alike come from different tables or passages of the source. Some results are limits rather than exact numbers.

One assay has as its system pAKT in BT474 cells. Kind of assay: Cell-based pAKT HTRF assay in BT474 cells. Conditions: BT474 cells, 4 hr incubation, read-out: pAKT inhibition IC50 in BT474 cells. The procedure, abridged: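 9-pt curve, top 3 μM, 3-fold steps, 0.25% DMSO; 4 hr compound exposure. Lysis, then HTRF with d2/Eu Cryptate antibody pair, 4–24 h RT. Ex 320 nm, Em 615 nm.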
The target in assay [1] is Cys242 in human PIK3CA (157-299) (Homo sapiens (Human), UniProt P42336). Nature of the assay: Covalent modification assay using MALDI-TOF MS. Conditions: 4 h reaction time point. The assay is classed as biochemical. The procedure, abridged:
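PIK3CA (157-299) at 3.33 μM or 1 μM in 20 mM HEPES, 150 mM NaCl, 2 mM MgCl2, pH 7.3 was incubated with compound (from 10 mM DMSO stocks) in the dark at room temperature for 15 min, 30 min, 2 h or 4 h. Linear-mode MALDI-TOF peak heights gave percent modification.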

Where [2] appears, read: 3.33 μM protein target, 1:7.5 protein to compound ratio (compounds 1-852).
Where [3] appears, read: Homo sapiens, BT-474, Compounds 10-999.
The mark [4] stands for this setting: 1 μM protein target, 1:5 protein to compound ratio (compounds 853-1279).

Cys242 in human PIK3CA (157-299), sequence (P42336 157-299): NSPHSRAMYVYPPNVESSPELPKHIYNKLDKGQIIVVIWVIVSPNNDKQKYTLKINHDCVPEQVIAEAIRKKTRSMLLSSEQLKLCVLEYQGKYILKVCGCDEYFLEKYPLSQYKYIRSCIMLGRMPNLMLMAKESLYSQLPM

Turning to `C=CC(=O)N1CC(n2cc(-c3nc(-c4ccc5c(c4)CCNC5)c4ccsc4c3-c3ccc(F)cc3C(F)F)cn2)C1` [Compound 120], the negative-log IC50 (pIC50) in the assay with pAKT in BT474 cells (Compounds 10-999) was 6.00 to 7.00. Besides, the “% of modification” value in assay [1] (setting [2]) is on record as “A (percent of modification of PIK3CA protein ≥75%)”.

On to `C=CC(=O)N1Cc2cc(-c3nc(-c4cnn(C)c4)c4ccsc4c3-c3c(F)cc(F)cc3OCCOC)nn2CC1C` (stereo not drawn) [Compound 469], for which the pIC50 with pAKT in BT474 cells (Compounds 10-999) was above 7.00. For the same molecule, the “% of modification” value in assay [1] (setting [2]) was “A (percent of modification of PIK3CA protein ≥75%)”.

Take `C=CC(=O)N1Cc2cc(-c3nc(-c4ccc5ncn(C)c5c4)c4ccsc4c3-c3c(F)cc(F)cc3OC(C)C)nn2CC1C` (stereo not drawn) [Compound 488]: the pIC50 with pAKT in BT474 cells (Compounds 10-999) is above 7.00. For the same molecule, the “% of modification” value in assay [1] (setting [2]) was “A (percent of modification of PIK3CA protein ≥75%)”.

Turning to `C=CC(=O)N1CCn2nc(-c3nc(-c4cnc5c(c4)CN(C)CC5)c4ccsc4c3-c3ccc(F)cc3OCCOC)cc2C1` [Compound 253], the pIC50 with pAKT in BT474 cells (Compounds 10-999) was above 7.00. In assay [1] (setting [2]), the “% of modification” value is on record as “A (percent of modification of PIK3CA protein ≥75%)”.

In the case of `C=CC(=O)N1CCn2nc(-c3nc(-c4ccc5ncn(C)c5c4)c4ccsc4c3-c3c(F)cc(F)cc3OCCO)cc2[C@H]1C` [Compound 653], the negative-log IC50 (pIC50) in the assay on pAKT in BT474 cells (Compounds 10-999) was above 7.00. The “% of modification” value in assay [1] (setting [2]) is listed as “B (50%<percent of modification <75%)”.

Regarding `C=CC(=O)N1CCn2nc(-c3nc(N4CCC5(CC4)COC5)c4ccsc4c3-c3ccc(F)cc3OCCOC)cc2C1` [Compound 198, 1-[2-[7-[4-fluoro-2-(2-methoxyethoxy)phenyl]-4-(2-oxa-7-azaspiro[3.5]nonan-7-yl)thieno[3,2-c]pyridin-6-yl]-6,7-dihydro-4H-pyrazolo[1,5-a]pyrazin-5-yl]prop-2-en-1-one], the pIC50 in the assay on pAKT in BT474 cells (setting [3]) is above 7.00. Besides, the “% of modification” value in assay [1] (setting [2]) is on record as “A (percent of modification of PIK3CA protein ≥75%)”.

As for `C=CC(=O)N1CCn2nc(-c3nc(-c4ccc(=O)n(C5CN(C)C5)c4)c4ccsc4c3-c3c(F)cc(F)cc3OCCOC)cc2C1C` (stereo not drawn) [Compound 1031], in the assay with pAKT in BT474 cells (Compounds 1000-1279), the pIC50 is 6.00 to 7.00. Also, the “% of modification” value in assay [1] (setting [4]) is recorded as “B (50%<percent of modification <75%)”.

Consider `C=CC(=O)N1CCn2nc(-c3nc(N4CCN(C(C)C)CC4)c4ccsc4c3-c3ccc(F)cc3OCCOC)cc2C1` [Compound 209], for which the negative logarithm of the IC50 (pIC50) with pAKT in BT474 cells (Compounds 10-999) was above 7.00. For the same molecule, the “% of modification” value in assay [1] (setting [2]) is reported as “A (percent of modification of PIK3CA protein ≥75%)”.

Turning to `C=CC(=O)N1CCc2nc(-c3nc(N4CCCC(N(C)C)C4)c4ccsc4c3-c3ccc(F)cc3OCCOC)sc2C1` (stereo not drawn) [Compound 159], the negative-log IC50 (pIC50) in the assay on pAKT in BT474 cells (Compounds 10-999) was 6.00 to 7.00. The “% of modification” value in assay [1] (setting [2]) is reported as “B (50%<percent of modification <75%)”.

Consider `C=CC(=O)N1Cc2cc(-c3nc(-c4cnn(C(C)(C)CO)c4)c4ccsc4c3-c3c(F)cc(F)cc3OCCOC)nn2C[C@H]1C` [Compound 738], for which, in the assay with pAKT in BT474 cells (Compounds 10-999), the pIC50 was above 7.00. The “% of modification” value in assay [1] (setting [2]) is “A (percent of modification of PIK3CA protein ≥75%)”.

Consider `C=CC(=O)N1Cc2cc(-c3nc(-c4cnn(C)c4)c4ccsc4c3-c3c(F)cc(F)cc3OC(C)C)nn2C[C@H]1C` [Compound 457, 1-((R)-2-((S)-7-(2,4-difluoro-6-isopropoxyphenyl)-4-(1-methyl-1H-pyrazol-4-yl)thieno[3,2-c]pyridin-6-yl)-6-methyl-6,7-dihydropyrazolo[1,5-a]pyrazin-5(4H)-yl)prop-2-en-1-one], for which, in the assay on pAKT in BT474 cells (Compounds 10-999), the pIC50 was above 7.00. For the same molecule, the “% of modification” value in assay [1] (setting [2]) is listed as “A (percent of modification of PIK3CA protein ≥75%)”.

With `C=CC(=O)N1CCn2nc(-c3nc(-c4ccc5c(c4)CNC(=O)C5)c4ccsc4c3-c3c(F)cc(F)cc3OCC(C)(C)O)cc2C1C` (stereo not drawn) [Compound 1139], the pIC50 in the assay with pAKT in BT474 cells (Compounds 1000-1279) was above 7.00. Moreover, the “% of modification” value in assay [1] (setting [4]) is on record as “A (percent of modification of PIK3CA protein ≥75%)”.

As to `C=CC(=O)N1Cc2cc(-c3nc(-c4ccc5c(c4)CCN(C)C5)c4ccsc4c3-c3c(F)cc(F)cc3OC)nn2[C@@H](C)C1` [Compound 562], the pIC50 in the assay on pAKT in BT474 cells (Compounds 10-999) is 6.00 to 7.00. Moreover, the “% of modification” value in assay [1] (setting [2]) was “C (25%≤percent of modification <50%)”.

Regarding `C=CC(=O)N1CCc2ncc(-c3nc(-c4cnn(CC(F)F)c4)c4ccsc4c3-c3c(F)cc(F)cc3OCCOC)cc2C1` [Compound 385], in the assay on pAKT in BT474 cells (Compounds 10-999), the pIC50 was above 7.00. In addition, in assay [1] (setting [2]), the “% of modification” value is recorded as “A (percent of modification of PIK3CA protein ≥75%)”.

Turning to `C=CC(=O)N1CCn2nc(-c3nc(-n4cc(C)cn4)c4ccsc4c3-c3ccc(F)cc3OC(C)C)cc2C1` [Compound 317, 1-[2-[7-(4-fluoro-2-isopropoxy-phenyl)-4-(4-methylpyrazol-1-yl)thieno[3,2-c]pyridin-6-yl]-6,7-dihydro-4H-pyrazolo[1,5-a]pyrazin-5-yl]prop-2-en-1-one], the pIC50 in the assay on pAKT in BT474 cells (setting [3]) is above 7.00. For the same molecule, the “% of modification” value in assay [1] (setting [2]) was “A (percent of modification of PIK3CA protein ≥75%)”.

With `C=CC(=O)N1CCn2nc(-c3nc(-c4ccc(C5(C(=O)NC6CN(C)C6)CC5)cc4)c4ccsc4c3-c3c(F)cc(F)cc3OCCOC)cc2C1C` (stereo not drawn) [Compound 1157], the pIC50 with pAKT in BT474 cells (Compounds 1000-1279) was 6.00 to 7.00. The “% of modification” value in assay [1] (setting [4]) is on record as “A (percent of modification of PIK3CA protein ≥75%)”.

On to `C=CC(=O)N1Cc2cc(-c3nc(-c4ccc(=O)n(CCN(C)C)c4)c4ccsc4c3-c3c(F)cc(F)cc3OCCOC)nn2C[C@H]1C` [Compound 880], for which the negative-log IC50 (pIC50) in the assay with pAKT in BT474 cells (Compounds 10-999) was above 7.00. For the same molecule, the “% of modification” value in assay [1] (setting [4]) is “A (percent of modification of PIK3CA protein ≥75%)”.

`C=CC(=O)N1CC[C@H](n2cc(-c3nc(-c4cnn(C)c4)c4ccsc4c3-c3c(F)cc(F)cc3OCCOC)cn2)C1` [Compound 368]: the negative-log IC50 (pIC50) in the assay with pAKT in BT474 cells (Compounds 10-999) is 6.00 to 7.00. In addition, the “% of modification” value in assay [1] (setting [2]) is listed as “A (percent of modification of PIK3CA protein ≥75%)”.

`COc1cc(F)ccc1-c1c(-c2cnn(C3CN(C(=O)C(F)Cl)C3)c2)nc(-c2ccc3c(c2)CCNC3)c2ccsc12` (stereo not drawn) [Compound 171]: the pIC50 in the assay with pAKT in BT474 cells (Compounds 10-999) was below 5.52. In assay [1] (setting [2]), the “% of modification” value is recorded as “D (percent of modification <25%)”.

On to `C=CC(=O)N1CCn2nc(-c3nc(-c4cn(C)cn4)c4ccsc4c3-c3c(F)cc(F)cc3OCCOC)cc2[C@@H]1C` [Compound 777], for which, in the assay with pAKT in BT474 cells (Compounds 10-999), the pIC50 was above 7.00. For the same molecule, the “% of modification” value in assay [1] (setting [2]) is recorded as “A (percent of modification of PIK3CA protein ≥75%)”.

In the case of `C=CC(=O)N1CCn2nc(-c3nc(-c4cnn(C)c4)ccc3-c3ccc(F)cc3OC(C)C)cc2C1` [Compound 279, 1-[2-[3-(4-fluoro-2-isopropoxy-phenyl)-6-(1-methylpyrazol-4-yl)-2-pyridyl]-6,7-dihydro-4H-pyrazolo[1,5-a]pyrazin-5-yl]prop-2-en-1-one], the negative logarithm of the IC50 (pIC50) with pAKT in BT474 cells (setting [3]) was 6.00 to 7.00. Moreover, the “% of modification” value in assay [1] (setting [2]) is recorded as “A (percent of modification of PIK3CA protein ≥75%)”.

As for `C=CC(=O)N1CCc2nc(-c3nc(-c4ccc5c(c4)CCNC5)c4ccsc4c3-c3c(F)cc(F)cc3OCCO)sc2C1` [Compound 415], the pIC50 in the assay on pAKT in BT474 cells (Compounds 10-999) was 6.00 to 7.00. In assay [1] (setting [2]), the “% of modification” value is “A (percent of modification of PIK3CA protein ≥75%)”.

Turning to `C=CC(=O)N1CCn2cc(-c3nc(-c4ccc5c(c4)CCNC5)c4ccsc4c3-c3ccc(F)cc3OCCOC)nc2C1` [Compound 101, 1-[2-[7-[4-fluoro-2-(2-methoxyethoxy)phenyl]-4-(1,2,3,4-tetrahydroisoquinolin-6-yl)thieno[3,2-c]pyridin-6-yl]-6,8-dihydro-5H-imidazo[1,2-a]pyrazin-7-yl]prop-2-en-1-one], the pIC50 in the assay with pAKT in BT474 cells (setting [3]) is above 7.00. Also, the “% of modification” value in assay [1] (setting [2]) is listed as “A (percent of modification of PIK3CA protein ≥75%)”.

For the molecule `C=CC(=O)N1CCn2nc(-c3nc(-c4cnc5c(cnn5C)c4)c4ccsc4c3-c3c(F)cc(F)cc3OCCOC)cc2[C@@H]1C` [Compound 888], in the assay with pAKT in BT474 cells (Compounds 10-999), the pIC50 is above 7.00. Also, in assay [1] (setting [4]), the “% of modification” value is recorded as “A (percent of modification of PIK3CA protein ≥75%)”.

Values taken from patent US20250230138A1, “COMPOUNDS HAVING A T-STRUCTURE FORMED BY AT LEAST FOUR CYCLES FOR USE IN THE TREATMENT OF CANCER AND OTHER INDICATIONS” (TheRas, Inc., priority 2022, published 2025).
